The results in this text go back to paper PMC10709319, “Glycosyltransferase 8 domain-containing protein 1 (GLT8D1) is a UDP-dependent galactosyltransferase” (Scientific Reports, 2023).

One experiment concerns the target T1, GLT8D1 (recombinant secretory glycosyltransferase 8 domain-containing protein 1) (Homo sapiens, UniProt Q68CQ7).
T1 construct: lumenal catalytic domain 52-371; GFP fusion kept; secreted from HEK293-F cells; N-glycosylated; expected mass 67,624 Da
T1 sequence (Q68CQ7 52-371): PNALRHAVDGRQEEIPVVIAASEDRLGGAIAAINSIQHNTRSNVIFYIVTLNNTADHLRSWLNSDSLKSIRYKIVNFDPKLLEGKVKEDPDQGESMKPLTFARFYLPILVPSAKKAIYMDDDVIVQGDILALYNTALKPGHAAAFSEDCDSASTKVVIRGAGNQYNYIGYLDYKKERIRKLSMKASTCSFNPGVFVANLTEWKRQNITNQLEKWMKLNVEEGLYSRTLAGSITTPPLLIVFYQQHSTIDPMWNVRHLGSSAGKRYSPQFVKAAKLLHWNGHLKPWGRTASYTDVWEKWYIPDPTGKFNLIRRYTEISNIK
The experiment is described as follows: UDP-Glo transferase assay; product by LC-MS/MS. It counts as biochemical. The note with it: acceptor, 20 mM; UDP-Gal donor, 5 mM MnCl2, 50 mM Tris-HCl pH 7.5.
With `CC(=O)N[C@H]1C(O)O[C@H](CO)[C@H](O)[C@@H]1O` (stereo partly drawn) [GalNAc], the “UDP-Glo transferase assay; product by LC-MS/MS” value is “With UDP-Gal as donor some transferase reaction was detected towards GalNAc and GlcNAc”.
Same read-out and setting: as for `CC(=O)N[C@H]1C(O)O[C@H](CO)[C@@H](O)[C@@H]1O` (stereo partly drawn) [GlcNAc], the entry is “With UDP-Gal as donor some transferase reaction was detected towards GalNAc and GlcNAc”.

A further experiment concerns the target T1, GLT8D1 (recombinant secretory glycosyltransferase 8 domain-containing protein 1). The experiment is described as follows: intrinsic tryptophan fluorescence DSF (nanoDSF). It is filed as binding. The note with it: 0.1 mM ligand, 1 mM MnCl2, 50 mM Tris-HCl pH 7.5; shift relative to Mn2+ alone.
For `Nc1ccn([C@@H]2O[C@H](COP(=O)(O)O)[C@@H](O)[C@H]2O)c(=O)n1` [CMP], the ΔTm entry is “+ 1.3 °C”.
In the case of `Nc1nc2c(ncn2[C@@H]2O[C@H](COP(=O)(O)OP(=O)(O)O)[C@@H](O)[C@H]2O)c(=O)[nH]1` [GDP], the ΔTm entry is “+ 7.7 °C”.
For the molecule `CC(=O)N[C@H]1[C@@H](OP(=O)(O)OP(=O)(O)OC[C@H]2O[C@@H](n3ccc(=O)[nH]c3=O)[C@H](O)[C@@H]2O)O[C@H](CO)[C@H](O)[C@@H]1O` [UDP-GalNAc], the ΔTm is ~ 2 °C.
`O=C(O)[C@H]1O[C@H](OP(=O)(O)OP(=O)(O)OC[C@H]2O[C@@H](n3ccc(=O)[nH]c3=O)[C@H](O)[C@@H]2O)[C@H](O)[C@@H](O)[C@@H]1O` [UDP-GlcA]: the ΔTm entry was “+ 4.9 °C”.
As to `CC(=O)N[C@H]1[C@@H](OP(=O)(O)OP(=O)(O)OC[C@H]2O[C@@H](n3ccc(=O)[nH]c3=O)[C@H](O)[C@@H]2O)O[C@H](CO)[C@@H](O)[C@@H]1O` [UDP-GlcNAc], the ΔTm was ~ 2 °C.
Consider `O=c1ccn([C@@H]2O[C@H](COP(=O)(O)OP(=O)(O)O[C@H]3OC[C@@H](O)[C@H](O)[C@H]3O)[C@@H](O)[C@H]2O)c(=O)[nH]1` [UDP-Xyl], for which the ΔTm is ~ 2 °C.
Consider `O=c1ccn([C@@H]2O[C@H](COP(=O)(O)OP(=O)(O)O)[C@@H](O)[C@H]2O)c(=O)[nH]1` [UDP], for which the ΔTm result was “+ 11.2 °C”.
